From article PMC10460844, “Real‐Time Monitoring of Multitarget Antimicrobial Mechanisms of Peptoids Using Label‐Free Imaging with Optical Diffraction Tomography” (Advanced Science, 2023)
In brackets after ≈: the same amount, converted by molar mass. Read-outs that look alike come from different tables or passages of the source.

Tests used:
[1] = Analytical reversed-phase HPLC elution (hydrophobicity); format: physicochemical; conditions: analytical RP-HPLC, 1 mL/min, UV 220 nm; for HPLC elution (%ACN): Table 1, SunFire C18 […] 250 mm, water/ACN + 0.1% TFA, 5% B 2 min then linear to 100% B over 30 min, used as measure of hydrophobicity; for HPLC elution: Table S1, SunFire C18, water/ACN + 0.1% TFA, 5 to 100% B linear over 30 min, approximate comparison of hydrophobicity
Outline: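 Analytical reversed-phase HPLC on a C18 column (4.6 × 250 mm, 5 μm) at 1 mL/min, water/acetonitrile each with 0.1% TFA. Held at 5% B for 2 min, then linear to 100% B over 30 min and held 5 min, with UV detection at 220 nm; retention time (tR) serves as hydrophobicity measure.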

[2] = tested on: rat erythrocytes; assay: Hemolysis assay; format: cell-based; conditions: for H max (100 µM): percentage of hemolysis at the highest concentration tested (100 µM), rat erythrocytes
Outline: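 Washed Sprague-Dawley rat erythrocytes (10% suspension in PBS pH 7.4) mixed with peptoids (0–100 µM), 60 min at 37 °C; supernatant A540 expressed as % of 1% Triton X-100 lysis. HC10/HC50 are concentrations giving 10%/50% hemolysis; Hmax is hemolysis at 100 µM.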

[3] = tested on: E. coli ATCC 25922; format: cell-based; conditions: ODT, 30 min treatment; buforin-II 25 µM, melittin 25 µM, 29 4 × MIC
Experimental: Three‐dimensional (3D) optical diffraction tomography (ODT) and fluorescence images of live bacterial cells were obtained using an HT‐2H Mach−Zehnder interferometric microscope, combining both ODT and fluorescence imaging into a single unit (Tomocube, Daejon, South Korea). 3D Fluorescence imaging was carried out, using three light sources (385, 470, and 565 nm) via serial fluorescence image acquisition in multiple planes followed by 3D deconvolution. 3D correlative imaging, using a combination of ODT and fluorescence imaging was performed using commercial software (TomoStudioTM, Tomocube) as described previously^[ [23c] ^] Bacterial cells were grown overnight and diluted (≈10^7 CFU mL^−1) in cation‐adjusted MHB2 media. The cells were loaded onto 50 mm imaging dishes with a #1.5H glass coverslip bottom (TomoDish, Tomocube) that were precoated with 0.01% (w/v) poly‐L‐lysine (Sigma‐Aldrich) in water. After 30 min incubation at room temperature, the coverslips were washed twice with PBS (pH 7.4) to remove unattached cells, and the media was replaced with PBS for the duration of the imaging. To monitor the change in bacterial morphology, bacterial cells were treated with a peptoid (or with control AMPs) in PBS containing FM4‐64 (10 µg mL^−1) or propidium iodide (10 µg mL^−1). To analyze 3D refractive index (RI) tomograms, individual bacteria were captured using ODT equipped with a digital micromirror device (Tomocube). In more detail, the light scattered by the bacterial cells was collected by an objective lens (NA = 1.2, water dipping, UPLSAPO 60XW, Olympus) and recorded by a digital image sensor (CMOS camera, FL3‐U313Y3M‐C, FLIR Systems). Using a field retrieval algorithm, the amplitude and phase images were retrieved from the obtained multiple holograms, and then the 3D RI distribution was determined.
The analysis tool in the TomoStudio software (Tomocube) was used to measure specific values, including the refractive index (RI) and the cell volume of bacteria. These values were determined from RI increments (RII) of 0.190 fL pg^−1, which is known as a representative value and was assumed to be the same for most proteins.^[ [46] ^]

[4] = tested on: E. coli ATCC 25922; assay: Thioflavin S fluorescence imaging of intracellular aggregation; format: cell-based; conditions: 29 and peptoid 1 at 4 × MIC, control peptides 2 × MIC
[5] = tested on: E. coli ATCC 25922; format: cell-based, Escherichia coli; conditions: mean of triplicate
Outline: (§1)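 Overnight MHB2 culture at 37 °C, subcultured 3–4 h, diluted to calculated OD 0.001 (≈2–5 × 10^5 CFU mL^−1) in MHB2 + 0.001% AcOH + 0.02% BSA. Six 2-fold peptoid dilutions, max 25 µM, triplicate. Visual turbidity read-out.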

[6] = tested on: S. aureus ATCC 25923; format: cell-based, Staphylococcus aureus; conditions: mean of triplicate
Outline: as §1

[7] = tested on: E. faecalis KCTC 3511; format: cell-based; conditions: KCTC 3511
[8] = tested on: S. typhimurium SL 1344; format: cell-based; conditions: SL 1344
[9] = tested on: P. aeruginosa MDR-198; format: cell-based
[10] = tested on: E. coli ESBL 63103; format: cell-based
[11] = tested on: K. pneumonia ESBL 61962; format: cell-based
[12] = tested on: S. aureus MRSA C623; format: cell-based
[13] = tested on: E. coli ATCC 25922; assay: NPN uptake assay (outer membrane); format: cell-based; conditions: E. coli ATCC 25922, 5 mM HEPES pH 7.2, 10 µM NPN, fluorescence
Experimental: 14. In vitro biological assays […]
The ability of peptoids to increase the permeability of the outer membrane of Gram-negative bacteria was determined by measuring the incorporation of the NPN fluorescent dye into the outer membrane of E. coli ATCC 25922. Bacterial cells were suspended to a final concentration of OD600 = 0.05 in 5 mM HEPES buffer, pH 7.2, containing 5 mM KCN. Then […]
200 μL NPN dye was added to wells of a 96 well plate to produce a final concentration of 10 μM, and the background fluorescence was recorded (λex = 350 nm, λem = 420 nm). Aliquots of peptoids were added to the well, and fluorescence was recorded as a function of time until there was no further increase in fluorescence. Increases of the permeability of the outer membrane after the addition of peptoids was reflected by increased fluorescence values as a result of NPN incorporation into the membrane. […]

[14] = tested on: E. coli ML-35 cells; assay: ONPG hydrolysis assay (inner membrane); format: cell-based; conditions: 1.5 mM ONPG, 10 mM sodium phosphate pH 7.4, absorbance 405 nm
Experimental: The permeability of the inner membrane was determined using E. coli ML-35 cells […]
The intact bacterial inner membrane is non-permeable to o-nitrophenyl-β-D-galactopyranoside (OPNG), a chromogenic substrate of the β-galactosidase.
Following damage to the inner membrane, OPNG enters the cells and is metabolized by β-galactosidase creating a chromogenic […]. E. coli cells were washed in 10 mM sodium phosphate (pH 7.4) containing 100 mM NaCl and resuspended in the same buffer at a final concentration of OD600 = 0.5 containing 1.5 mM ONPG. The hydrolysis of ONPG and generation of o-nitrophenol over time were monitored as absorbance change at 405 nm following the addition of peptoids. […]

[15] = remark linked to increased retention time of N4hb peptoids
[16] = tested on: human cells and animals; conditions: cited from earlier work
Experimental: The antimicrobial, hemolytic, and cytotoxic activities of counter-ion-exchanged peptoids were evaluated (Table S3).

[17] = Table S2, broth dilution, MHB2, 37 °C 24 h, max 25 µM

## CC[C@H](C)[C@H](NC(=O)CN)C(=O)NCC(=O)N[C@@H](C)C(=O)N[C@H](C(=O)N[C@@H](CC(C)C)C(=O)N[C@@H](CCCCN)C(=O)N[C@H](C(=O)N[C@@H](CC(C)C)C(=O)N[C@H](C(=O)N[C@H](C(=O)NCC(=O)N[C@@H](CC(C)C)C(=O)N1CCC[C@H]1C(=O)N[C@@H](C)C(=O)N[C@@H](CC(C)C)C(=O)N[C@H](C(=O)N[C@@H](CO)C(=O)N[C@@H](Cc1c[nH]c2ccccc12)C(=O)N[C@H](C(=O)N[C@@H](CCCCN)C(=O)N[C@@H](CCCNC(=N)N)C(=O)N[C@@H](CCCCN)C(=O)N[C@@H](CCCNC(=N)N)C(=O)N[C@@H](CCC(N)=O)C(=O)N[C@@H](CCC(N)=O)C(N)=O)[C@@H](C)CC)[C@@H](C)CC)[C@@H](C)O)[C@@H](C)O)C(C)C)C(C)C [Melittin, reference compound]
[1]
  HPLC elution (%ACN): 55.4 %ACN
[2]
  H max (100 µM): 105.7 ± 17.6%
[3]
  change of cell volume: notable reduction in cell volume
  change of mean RI value versus control cells: significantly increased mean RI values
[4]
  Th S fluorescence (intracellular biomass aggregation): enhanced Th S fluorescence

## C[C@@H](c1ccccc1)N(CC(N)=O)C(=O)CN(CCCCN)C(=O)CN(CCCCN)C(=O)CN(C(=O)CN(C(=O)CN(CCCCN)C(=O)CN(C(=O)CN(C(=O)CN(CCCCN)C(=O)CN(CCc1c[nH]c2ccccc12)C(=O)CN(CCc1c[nH]c2ccccc12)C(=O)CNCCCCN)[C@@H](C)c1ccccc1)[C@@H](C)c1ccccc1)[C@@H](C)c1ccccc1)[C@@H](C)c1ccccc1 [peptoid 32]
[1]
  HPLC elution (%ACN): 48.4 %ACN
[5]; [17]
  MIC E. coli ATCC25922: 6.3 µM (≈ 11.7 µg/mL)
[5]; Table S3, counter-ion exchange series (TFA, HCl, AcOH salts)
  MIC E. coli ATCC25922: 6.3 µM
[6]; [17]
  MIC S. aureus ATCC25923: 3.1 µM (≈ 5.78 µg/mL)
[6]; Table S3, counter-ion exchange series
  MIC S. aureus ATCC25923: 3.1 µM (≈ 5.78 µg/mL)
[2]
  Hmax (100 µM): 4.2±1.0%
  H max (100 µM): 15.9 ± 1.5%
[2]; pH 7.4
  HC10: 77.7 µM
  HC50: > 100 µM
[2]; red cells of rat
  HC10: > 100 µM
[7]
  MIC E. faecalis KCTC 3511: 6.3 µM (≈ 11.7 µg/mL)
[8]
  MIC S. typhimurium SL 1344: 6.3 µM (≈ 11.7 µg/mL)
[9]
  MIC P. aeruginosa MDR-198: 6.3 to 12.5 µM
[10]
  MIC E. coli ESBL 63103: 12.5 to 25 µM
[11]
  MIC K. pneumonia ESBL 61962: 12.5 to 25 µM
[12]
  MIC S. aureus MRSA C623: 3.1 to 6.3 µM
[13]
  outer membrane disruption (NPN uptake): somewhat lower
[14]
  inner membrane disruption (ONPG hydrolysis): lower than that seen with more hydrophobic peptoids

## C[C@@H](c1ccccc1)N(CC(N)=O)C(=O)CN(CCCCN)C(=O)CN(C(=O)CN(C(=O)CN(CCCCN)C(=O)CN(C(=O)CN(CCCCN)C(=O)CN(CCCCN)C(=O)CN(C(=O)CN(C(=O)CN(CCCCN)C(=O)CN(C(=O)CNCCc1c[nH]c2ccccc12)[C@@H](C)c1ccccc1)[C@@H](C)c1ccccc1)[C@@H](C)c1ccccc1)[C@@H](C)c1ccccc1)[C@@H](C)c1ccccc1)[C@@H](C)c1ccccc1 [peptoid 63]
[1]
  HPLC elution: 49.9 % MeCN
[2]
  Hmax (100 µM): 12.7±0.9%
[2]; pH 7.4
  HC10: 85.0 µM
  HC50: > 100 µM
[15]
  aqueous solubility: poor aqueous

## C[C@@H](c1ccccc1)N(CC(N)=O)C(=O)CN(CCCCN)C(=O)CN(C(=O)CN(C(=O)CN(CCCCN)C(=O)CN(C(=O)CN(C(=O)CN(CCCCN)C(=O)CN(C(=O)CN(CCCCN)C(=O)CN(CCCCN)C(=O)CN(C(=O)CNCCc1c[nH]c2ccccc12)[C@@H](C)c1ccccc1)[C@@H](C)c1ccccc1)[C@@H](C)c1ccccc1)[C@@H](C)c1ccccc1)[C@@H](C)c1ccccc1)[C@@H](C)c1ccccc1 [peptoid 64]
[1]
  HPLC elution: 50.5 % MeCN
[2]
  Hmax (100 µM): 18.9±2.9%
[2]; pH 7.4
  HC10: 70.7 µM
  HC50: > 100 µM
[15]
  aqueous solubility: poor aqueous

## KKIRVRLSA [M33-TFA]
[16]
  toxicity of M33-TFA above that of M33-AcOH: 5-30%
